Assay results taken from patent publication US11744804B2, “Microcapsule powder stable in gastric acid, method for preparing same, and use thereof” (HOBOOMLIFE BIO-TECHNOLOGY (SHENZHEN) CO., LTD., priority 2021, dated 2023).

Experiment: Release test in artificial intestinal juice
Format: physicochemical
Conditions: for Dissolution rate of core material after 1 h / Dissolution rate of core material after 2 h / Dissolution rate of core material after 3 h / Dissolution rate of core material after 4 h: artificial intestinal juice, 37° C., 100 r/min; for Retention rate of NADH before test: before artificial intestinal juice test
Protocol: A Tablet Four-Usage Tester was used for testing. The tester was started for preheating. The temperature was set at 37° C. A basket shaft and a basket were installed. A positioning ball used for positioning (marked) was put into a dissolution cup (900 mL of prepared artificial intestinal juice was added into each dissolution cup) and fixed. 200 mg of sample 2 and 200 mg of sample 5 in the examples as well as 200 mg of corresponding core materials were taken respectively, wrapped with gauze and put into corresponding baskets. After being rotated at 100 r/min for 1, 2, 3 and 4 h, 1 mL of liquid was taken from each of the dissolution cups. The contents of the core materials in the samples were detected by the same detection method as in Example 1.
Retention rate of core material=(Theoretical embedding amount of core material in sample-Content of core material in artificial intestinal juice detected)/Theoretical embedding amount of core material in sample. The theoretical embedding amount of the core material in the sample is the added amount of the core material in the sample.

Row | Dissolution rate of core material after 1 h | Dissolution rate of core material after 2 h | Dissolution rate of core material after 3 h | Dissolution rate of core material after 4 h | Retention rate of NADH before test | SMILES
1 | 99.6% | 99.5% | 99.4% | 99.5% | 100% | NC(=O)C1=CN([C@@H]2O[C@H](COP(=O)(O)OP(=O)(O)OC[C@H]3O[C@@H](n4cnc5c(N)ncnc54)[C@H](O)[C@@H]3O)[C@@H](O)[C@H]2O)C=CC1 [NADH, reduced nicotinamide adenine dinucleotide]
2 | 98.4% | 99.7% | 99.3% | 99.1% | 100% | NC(=O)C1=CN([C@@H]2O[C@H](COP(=O)(O)OP(=O)(O)OC[C@H]3O[C@@H](n4cnc5c(N)ncnc54)[C@H](OP(=O)(O)O)[C@@H]3O)[C@@H](O)[C@H]2O)C=CC1 [NADPH, reduced nicotinamide adenine dinucleotide phosphate]
